Measurements: US20260335323A1, “CHIMERIC MOLECULE” (UCL Business Ltd, priority 2023, published 2026)

Legend:
SH-SY5Y cells = test: mito-mKeima mitophagy assay (mitophagy index); format: cell-based, human; conditions: mitochondrial toxin treatment
Procedure: FIG. 1. The structure of AUTAC-4 is shown in (A). (B) Representative images of SH-SY5Y cells stably expressing the mito-mKeima reporter treated with AUTAC4 for 18 h. Nuclei were stained with Hoechst 33342, healthy mitochondria are shown in green and mitochondria in lysosomes are shown in red. (C-E) Fold change in mitophagy index over time after treatment with increasing concentrations of AUTAC4 under treatment with DMSO (C), 3 mM CCCP (D) or 0.1/0.1 mM antimycin/oligomycin (E), also for 18 h. (F) Quantification of changes in mitochondrial membrane potential over time (DYm) by measuring the TMRM relative fluorescence intensity (RFI) treated with DMSO, 10 mM CCCP, 10 mM and 20 mM AUTAC4. Normalised to number of nuclei. (G) Representative western blot of SH-SY5Y cells treated with DMSO, 10 mM AUTAC4 or 10 mM AUTAC4+0.1/0.1 mM antimycin/oligomycin for 18 h and, probed for p62, b-actin and Tom20. Quantifications of western blot for changes in Tom20 and p62 levels shown in (H) and (I), respectively. (J) Representative images of PANC-1 cells stably expressing the mCherry-EGFP-LC3 tandem reporter. Nuclei stained with Hoechst 33342, autophagosomes are shown in the EGFP channel and autolysosomes in the mCherry channel. Fold change in the number of autophagosome (K) and autolysosome (L) puncta in AUTAC4 treated cells. All data shown are mean±SEM, n=3, *p<0.05, *** p<0.001. For mito-mKeima experiments, statistics were calculated by Two-way ANOVA with Tukey's multiple comparisons test. For western blots, TMRM and LC3 tandem reporter assay, statistics were calculated with one-way ANOVA with Tukey's multiple comparisons test.
(§1) FIG. 5. ULKTACs induce potent mitophagy after colocalisation and local activation of ULK1 at mitochondria (A) Representative immunofluorescence of PANC-1 cells treated with CCCP, ULKTACs or both and immunostained for TOM20 and ULK1 and counterstained with Alexa 488 and 568, respectively. Nuclei stained with Hoechst 33342. (B) Quantification of the colocalised ULK1 to TOM20 spot area of PANC-1 cells treated with DMSO, 5 mM CCCP, 10 mM BL-918, 10 mM BL-918+5 mM CCCP, […] NZ-65, […] NZ-65+5 mM CCCP, […] NZ-66, […] NZ-66+5 mM CCCP, 50 mM TSPO ligand, […] NZ-65+50 mM TSPO ligand, […] NZ-66+50 mM TSPO ligand. (C) Western blot of SH-SY5Y cells treated with 1 mM ULKTACs, 5 mM CCCP or both, probed for Mfn2, b-Actin and Tom20—quantifications are shown in (D) for Mfn2, normalised to Actin. (E) Representative images of SH-SY5Y cells stably expressing the mito-mKeima reporter treated with 3 mM CCCP, NZ-65 or both. Nuclei were stained with Hoechst 33342, healthy mitochondria are shown in green and mitochondria in lysosomes are shown in red. Fold change in mitophagy index over time after treatment for the indicated timepoints with title treatments alone or co-treated with 1.25 mM ULKTAC or 10 mM ULKTAC NZ-65 (F) or NZ-66 (G). Fold change in mitophagy index over time after treatment for the indicated timepoints with DMSO, 1.25 µM NZ-65 or NZ-66±50 µM TSPO ligand under co-treatment with DMSO (H) or 3 μM CCCP (I). […] Normalised to number of nuclei. All data shown are mean±SEM, n=3, *p<0.05, ** p<0.01, *** p<0.001. For colocalisation and TMRM experiments, one-way ANOVA with Dunnett's multiple comparisons test. For western blots, one-way ANOVA with Tukey's multiple comparisons test and unpaired t-test. For mito-mKeima experiment, two-way ANOVA with Tukey's multiple comparisons test.
SH-SY5Y stably expressing mito-mKeima were produced as previously described28,29. Cells were seeded in 384 well CellCarrier Ultra plates (PerkinElmer) 24 hours before treatment in complete media without phenol red. Cells were treated with increasing concentrations of BL-918, AUTAC4, NZ-65 or NZ-66, 24 hours prior to treatment with increasing concentrations of mitochondrial uncouplers to cause mitochondrial insult. SH-SY5Y mitochondria were treated with DMSO, 3 μM CCCP, 10 μM CCCP, 0.1/0.1 μM antimycin/oligomycin (AO), 0.5/0.5 µM AO or 1/1 μM AO. […]

ULK1 = biological target: T1, ULK1 (Homo sapiens, UniProt O75385); test: ULK1/TOM20 co-localisation immunofluorescence in PANC-1 cells; format: cell-based; parameters: pSer317 blot or TOM20 co-localisation; conditions: PANC-1, 18 hours, alone
T1 sequence (O75385 1-1050): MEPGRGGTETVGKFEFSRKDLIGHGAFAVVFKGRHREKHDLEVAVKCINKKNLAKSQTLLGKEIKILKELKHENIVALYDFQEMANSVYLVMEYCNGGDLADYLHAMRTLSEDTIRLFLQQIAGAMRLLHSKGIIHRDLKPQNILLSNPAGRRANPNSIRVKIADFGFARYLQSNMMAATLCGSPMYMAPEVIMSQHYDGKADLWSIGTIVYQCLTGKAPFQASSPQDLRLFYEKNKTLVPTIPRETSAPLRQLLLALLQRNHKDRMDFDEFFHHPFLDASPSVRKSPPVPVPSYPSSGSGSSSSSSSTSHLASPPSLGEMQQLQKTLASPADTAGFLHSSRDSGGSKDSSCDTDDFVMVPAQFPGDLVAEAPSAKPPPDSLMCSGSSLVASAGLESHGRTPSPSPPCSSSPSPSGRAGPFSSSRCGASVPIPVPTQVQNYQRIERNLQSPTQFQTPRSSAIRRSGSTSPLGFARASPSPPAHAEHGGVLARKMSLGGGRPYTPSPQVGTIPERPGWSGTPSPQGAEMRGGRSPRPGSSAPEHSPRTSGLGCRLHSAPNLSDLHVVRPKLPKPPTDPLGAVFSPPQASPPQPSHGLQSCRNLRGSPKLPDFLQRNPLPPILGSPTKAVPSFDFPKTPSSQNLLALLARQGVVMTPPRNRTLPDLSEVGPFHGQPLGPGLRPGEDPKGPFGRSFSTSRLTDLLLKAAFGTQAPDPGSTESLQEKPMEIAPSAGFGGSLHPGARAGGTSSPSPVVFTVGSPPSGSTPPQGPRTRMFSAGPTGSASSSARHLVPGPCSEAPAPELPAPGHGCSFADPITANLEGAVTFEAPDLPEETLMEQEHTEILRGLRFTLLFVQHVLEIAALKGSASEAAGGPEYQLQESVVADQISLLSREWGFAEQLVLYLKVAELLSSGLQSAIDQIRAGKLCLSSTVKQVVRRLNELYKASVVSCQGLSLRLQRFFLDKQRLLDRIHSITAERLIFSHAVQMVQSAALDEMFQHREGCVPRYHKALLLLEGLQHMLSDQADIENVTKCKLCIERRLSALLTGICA
Procedure: as §1
For TOM20/ULK1 immunofluorescence, cells were seeded in a 384 well PerkinElmer CellCarrier Ultra plate 24 hours prior to treatment with compounds. Cells were treated for 18 hours after which they were fixed with 4% paraformaldehyde (PFA) in phosphate buffered saline (PBS) and blocked with 10% FBS and 0.1% Triton in PBS. Plates were incubated at 4° C. overnight, with 1:400 mouse anti-TOM20 (Santa Cruz, #sc-17764) and 1:400 rabbit anti-ULK1 (Cell Signalling Technologies, #0854). The following day, plates were incubated with 1:1000 goat anti-mouse Alexa 488 (ThermoFisher Scientific, #A-11029), 1:1000 goat anti-rabbit Alexa 568 (ThermoFisher Scientific, #A-11011) and 1.62 μM Hoechst 33342 at room temperature for 1 hour before imaging. For ATP5a/LC3 immunofluorescence, cells were fixed with ice-cold 1:1 MeOH: acetone and blocked with 3% BSA (Sigma-Aldrich, #A3803) in Dulbecco's PBS (D-PBS). Plates were incubated overnight at 4° C. with 1:400 LC3B (D11) XP Rabbit mAb Alexa Fluor 647 Conjugate (Cell Signalling Technologies, #65299) and 1:400 ATP5a (Cell Signalling Technologies, #18023) lightning-linked to Alexa Fluor 488. The following day, plates were incubated with 1.62 […] at room temperature for 1 hour before imaging. Excitation and emission spectra for each channel are as follows: Hoechst 33342=405/435-480 nm, Alexa 488=488/500-550 nm and Alexa 568=561/570-630 nm. Images were acquired at 40× and 63× magnification with water immersion lens.
To understand the temporal kinetics of NZ-65 and NZ-66, we assessed the recruitment of ULK1 to mitochondria, using co-localisation of ULK1 and TOM20 by immunofluorescence. […] After showing the co-localisation of ULK1 to the outer mitochondrial membrane (OMM) after ULKTAC treatment, we wanted to determine whether the ULKTACs induced mitophagy. To do this, we measured changes in Mfn2 under basal conditions and co-treatment with CCCP (FIG. 5C, D).

Mfn2 = test: Western blot, Mfn2 degradation in MEF WT; format: cell-based, mouse; conditions: with ULKTAC; cells not given
Procedure: FIG. 6. ULKTACs rely on ULK1 for the redirection of autophagy components to mitochondria and subsequent mitophagic degradation (A) Western blot of mouse embryonic fibroblasts (MEF) WT and MEF ULK1/2^−/− treated with 1 mM ULKTACs, 5 mM CCCP or both and probed for ULK1, Mfn2 and Actin—quantification of the relative intensity of Mfn2 shown in (B), normalised to Actin. Representative immunofluorescence of MEF WT (C) and MEF ULK1/2^−/− (D) treated with 5 mM CCCP, 1 mM ULKTACs or both and immunostained for Alexa 488 ATP5a and Alexa 647 LC3B. Quantification of the colocalised LC3 to ATP5a spot area shown in WT vs ULK1/2^−/− treated MEF cells shown in (E). Data shown are mean±SEM, n=3, *p<0.05, ** p<0.01, *** p<0.001, Two-way ANOVA with Tukey's multiple comparisons test.
Cells were homogenised in protein lysis buffer consisting of 0.1 M Tris pH 8.0, 0.1 M NaCl, 5% glycerol, IGEPAL® CA-630 (#18896. Sigma-Aldrich) and 5 mM EDTA, 0.1 M N-ethyl maleimide (ThermoFisher, #23030) and protease inhibitor (Cell Signalling Technologies, #5871). Protein concentrations were determined using the BCA assay to ensure equal loading. […] The membranes were immunoblotted with primary antibodies, overnight at 4° C. ULK1 (D8H5) Rabbit mAb (#0854) [1:1000], Phospho-ULK1 (Ser 317) Rabbit antibody (#37762) [1:1000], LC3B Rabbit antibody (#2775) [1:1000], TOM20 (D8T4N) Rabbit mAb (#42406) [1:1000] and, Phospho-Ubiquitin (Ser 65) (E2J6T) Rabbit mAb (#62082) [1:500] were obtained from Cell Signalling Technologies. Recombinant Anti-Vinculin Rabbit antibody (EPR8185) (#ab129002) [1:5000] and Anti-Mitofusin2 mouse antibody (6A8) (#ab56889) [1:1000] were purchased from Abcam. Anti-Actin mouse monoclonal antibody (#A1978) [1:1000] and Anti-rabbit p62/SQSTM1 (#P0067) [1:1000], were purchased from Sigma-Aldrich. Mono- and polyubiquitinylated conjugates monoclonal antibody (FK2) (BML-PW8810-0100) [1:500] was purchased from Enzo Life Sciences. Anti BRD4 (E2A7X) rabbit monoclonal antibody (#13440), Anti c-MYC (D84C12) rabbit monoclonal antibody (#5605) [1:1000], Anti GAPDH (D4C6R) mouse monoclonal antibody (#97166) [1:1000], Anti Max (S20) rabbit monoclonal antibody (#4739) [1:1000] were purchased from Cell Signalling Technologies. Anti Phospho-CHK1 (Ser 345) rabbit monoclonal antibody (#2341) [1:1000], Anti gamma-H2AX (Ser 139) rabbit monoclonal antibody (#2577) [1:1000] were obtained from Cell Signalling Technologies, Anti RPA32/RPA2 (phospho S4/S8) rabbit monoclonal antibody (ab87277) [1:1000] were obtained from Abcam.
Membranes were then incubated with horseradish peroxidase (HRP)-conjugated secondary antibodies (Rabbit #7074 and Mouse #7076) purchased from Cell Signalling Technologies for 1 hour and the HRP signal was detected using EZ-ECL Enhanced Chemiluminescence Detection Kit for HRP (#20-500-500, Sartorius), and imaged with an Alliance Q9 Advanced (UVITec). Where required, membranes were stripped with mild stripping buffer consisting of 0.2 M glycine, 3.47 mM SDS, 1% Tween 20, pH 2.2, blocked for 1 hour with TBS-T+3% BSA and re-probed with primary antibodies.
Therefore, we conclude that NZ-65 and NZ-66 are novel ULKTAC molecules that initiate the recruitment of ULK1 to mitochondria, leading to an increase in local ULK1 activity, the formation of an autophagosome and mitophagy.

N#CC(C#N)=NNc1cccc(Cl)c1 [CCCP, reference compound]
induction of mitophagy (SH-SY5Y cells): induction of mitophagy

NC(=O)C(=O)c1c(-c2ccccc2)[nH]c2ccccc12 [TSPO ligand, reference compound]
co-localisation of ULK1 and TOM20 (ULK1): neither BL-918 nor the TSPO ligand alone induce co-localisation

COc1ccc(Nc2ncc(C(F)(F)F)c(NC3CC3)n2)cc1OC [SBP-7455, reference compound]
ULKTAC mediated degradation of Mfn2 in presence of dual ULK1/2 inhibitor (Mfn2): additionally demonstrating the requirement for ULK1 for ULKTAC mediated degradation of Mfn2
